Tests used:
[1] = system: MALME-3M; assay: NCI-60 SRB screening (one-dose and five-dose); type: cell-based, human; conditions: 48 h; for Growth Percent: 10 μM; for GI50: Homo sapiens, five dose 0.01–100 μM
How it was run: (§1)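 Spectrophotometric SRB end point; 48-h drug exposure; percent of untreated-control growth reported.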

[2] = system: U251; assay: NCI-60 SRB screening (one-dose and five-dose); type: cell-based, human; conditions: 48 h; for GI50: Homo sapiens, U-251, U251, five dose 0.01–100 μM; for Growth Percent: U251, 10 μM
How it was run: (§2)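 After a 48-h incubation with compound, cellular protein was stained with SRB and growth estimated by spectrophotometry relative to untreated controls.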

[3] = system: KM-12; assay: NCI-60 SRB screening (one-dose and five-dose); type: cell-based, human; conditions: 48 h; for GI50: Homo sapiens, KM12, KM-12, five dose 0.01–100 μM; for Growth Percent: KM-12, 10 μM
How it was run: as §1

[4] = system: MDA-MB-231/ATCC; assay: NCI-60 SRB screening (one-dose and five-dose); type: cell-based, human; conditions: 48 h; for Growth Percent: 10 μM; for GI50: Homo sapiens, five dose 0.01–100 μM
How it was run: as §1

[5] = system: 786-0; assay: NCI-60 SRB screening (one-dose and five-dose); type: cell-based, human; conditions: 48 h; for Growth Percent: 786-0, 10 μM; for GI50: Homo sapiens, 786-0, five dose 0.01–100 μM
How it was run: as §1

[6] = system: HS 578T; assay: NCI-60 SRB screening (one-dose and five-dose); type: cell-based, human; conditions: 48 h; for Growth Percent: 10 μM; for GI50: Homo sapiens, five dose 0.01–100 μM
How it was run: as §2

[7] = system: SW-620; assay: NCI-60 SRB screening (one-dose and five-dose); type: cell-based, human; conditions: 48 h; for GI50: Homo sapiens, SW-620, five dose 0.01–100 μM; for Growth Percent: SW-620, 10 μM
How it was run: as §1

[8] = system: NCI-H522; assay: NCI-60 SRB screening (one-dose and five-dose); type: cell-based, human; conditions: 48 h; for GI50: Homo sapiens, NCI-H522, five dose 0.01–100 μM; for Growth Percent: NCI-H522, 10 μM
How it was run: as §2

[9] = system: UACC-62; assay: NCI-60 SRB screening (one-dose and five-dose); type: cell-based, human; conditions: 48 h; for GI50: Homo sapiens, UACC-62, five dose 0.01–100 μM; for Growth Percent: UACC-62, 10 μM
How it was run: as §1

[10] = system: UACC-257; assay: NCI-60 SRB screening (one-dose and five-dose); type: cell-based, human; conditions: 48 h; for GI50: Homo sapiens, UACC-257, five dose 0.01–100 μM; for Growth Percent: UACC-257, 10 μM
How it was run: as §1

[11] = system: OVCAR-4; assay: NCI-60 SRB screening (one-dose and five-dose); type: cell-based, human; conditions: 48 h; for GI50: Homo sapiens, OVCAR-4, five dose 0.01–100 μM; for Growth Percent: OVCAR-4, 10 μM
How it was run: as §2

[12] = system: NCI/ADR-RES; assay: NCI-60 SRB screening (one-dose and five-dose); type: cell-based, human; conditions: 48 h; for Growth Percent: 10 μM; for GI50: Homo sapiens, five dose 0.01–100 μM
How it was run: as §1

[13] = system: SF-539; assay: NCI-60 SRB screening (one-dose and five-dose); type: cell-based, human; conditions: 48 h; for GI50: Homo sapiens, SF-539, five dose 0.01–100 μM; for Growth Percent: SF-539, 10 μM
How it was run: as §1

[14] = system: PC-3; assay: NCI-60 SRB screening (one-dose and five-dose); type: cell-based, human; conditions: 48 h; for GI50: Homo sapiens, PC-3, five dose 0.01–100 μM; for Growth Percent: PC-3, 10 μM
How it was run: as §1

[15] = system: ACHN; assay: NCI-60 SRB screening (one-dose and five-dose); type: cell-based, human; conditions: 48 h; for Growth Percent: 10 μM; for GI50: Homo sapiens, five dose 0.01–100 μM
How it was run: as §1

[16] = system: T-47D; assay: NCI-60 SRB screening (one-dose and five-dose); type: cell-based, human; conditions: 48 h; for GI50: Homo sapiens, T47D, T -47D, five dose 0.01–100 μM; for Growth Percent: T-47D, 10 μM
How it was run: as §2

[17] = system: HCT-116; assay: NCI-60 SRB screening (one-dose and five-dose); type: cell-based, human; conditions: 48 h; for Growth Percent: HCT-116, 10 μM; for GI50: Homo sapiens, HCT-116, five dose 0.01–100 μM
How it was run: as §1

[18] = system: IGROV1; assay: NCI-60 SRB screening (one-dose and five-dose); type: cell-based, human; conditions: 48 h; for GI50: Homo sapiens, IGROV-1, IGROV1, five dose 0.01–100 μM; for Growth Percent: IGROV1, 10 μM
How it was run: as §2

[19] = system: MCF7; assay: NCI-60 SRB screening (one-dose and five-dose); type: cell-based, human; conditions: 48 h; for GI50: Homo sapiens, MCF7, five dose 0.01–100 μM; for Growth Percent: MCF7, 10 μM
How it was run: as §1

[20] = system: A549/ATCC; assay: NCI-60 SRB screening (one-dose and five-dose); type: cell-based, human; conditions: 48 h; for Growth Percent: 10 μM; for GI50: Homo sapiens, five dose 0.01–100 μM
How it was run: as §1

[21] = system: SN12C; assay: NCI-60 SRB screening (one-dose and five-dose); type: cell-based, human; conditions: 48 h; for Growth Percent: 10 μM; for GI50: Homo sapiens, five dose 0.01–100 μM
How it was run: as §2

[22] = system: NCI-60 cancer cell line panel; assay: NCI-60 cancer cell line panel screening (whole panel / subpanels); type: cell-based; conditions: for Selectivity index (SI): full panel MG_MID / subpanel MG_MID; for GI50: Homo sapiens, five-dose testing, all cell lines, read-out: GI50 values, range over the NCI-60 panel
Procedure: At first, compounds were tested in a single high dose concentration regimen (10 µM) against a panel of sixty various cancer cell lines; the results of the screening are outlined in Table 1 in the form of percent growth (GP %) of treated cells versus untreated cells used as control, where negative numbers indicate cell kill. The experimental results of growth inhibition may range from 0 to 100 and indicate a cytostatic effect while negative values indicate cell death and thus a cytotoxic activity (for NCI data see Supplementary Material Figures S6–S12).
The selectivity index (SI) was calculated by dividing the full panel MG_MID60 (μM) of tested compounds by their individual subpanel MG_MID of the cell line (μM); it correlates directly to the selectivity of their anticancer activity (Table 3). […] By contrast, despite its strong antiproliferative effect, compound 7 acts with low selectivity against the various human tumor cell lines, the highest SI value being 1.73.
Compounds 1, 2, and 4–8 were tested at one dose assay (10^−5 M) toward a panel of approximately sixty cancer cell lines representing different cancer types: leukemia, melanoma, lung, colon, CNS, ovarian, renal, prostate, and breast cancers. Primary anticancer assays were performed according to the NCI protocol as described elsewhere (see, e.g., http://dtp.nci.nih.gov accessed on 16 October 2019). The compounds were added at a single concentration and the cell cultures were incubated for 48 h. The end point determinations were made with a protein binding dye, sulforhodamine B (SRB). The results for each compound are reported as the percent growth (GP %) of treated cells compared to untreated control cells (negative numbers indicate cell kill). Compounds with considerable activity against all tested human tumor cell lines (6 and 7) were selected for the advanced assay against a panel of approximately sixty tumor cell lines at 10-fold dilutions of five concentrations (100 µM, 10 µM, 1 µM, 0.1 µM, and 0.01 µM). The percentage of growth was evaluated spectrophotometrically versus controls not treated with test agents after 48-h exposure and using SRB protein assay to estimate cell viability or growth. Three antitumor activity dose–response parameters were calculated for each cell line: GI50—molar concentration of the compound that inhibits 50% net cell growth; TGI—molar concentration of the compound leading to the total inhibition; and LC50—molar concentration of the compound leading to 50% net cell death (presented in negative logarithm). Furthermore, mean graph midpoints (MG_MID) were calculated for each of the parameters, giving an average activity parameter over all cell lines for the tested compound. For the MG_MID calculation, insensitive cell lines were included with the highest concentration tested.

[23] = Non-Small Cell Lung Cancer subpanel

## C[C@H]1[C@@H]2[C@H]3CC[C@@H]4[C@@]5(C)C/C(=C\c6cccnc6)C(=O)C(C)(C)[C@@H]5CC[C@@]4(C)[C@]3(C)CC[C@]23CO[C@@]1(C)[C@@H](C(=O)/C=C/c1cccnc1)C3 [Compound 6, 3-Oxo-2-(3-pyridinylidene)-21-[3-(2E-pyridinyl)-prop-2-en-1-one]-20β,28-epoxy-18α,19βH-ursane]
[1]
  Growth Percent: −33.54%
  GI50: 0.8 µM
[2]
  GI50: 1.04 µM
  Growth Percent: −68.02%
[3]
  GI50: 0.91 µM
  Growth Percent: −55.61%
[4]
  Growth Percent: −30.71%
  GI50: 1.03 µM
[5]
  Growth Percent: −38.97%
  GI50: 0.92 µM
[6]
  Growth Percent: 11.24%
  GI50: 1.44 µM
[7]
  GI50: 0.98 µM
  Growth Percent: −26.39%
[8]
  GI50: 1.36 µM
  Growth Percent: −34.35%
[9]
  GI50: 0.6 µM
  Growth Percent: −25.57%
[10]
  GI50: 1.67 µM
  Growth Percent: 13.16%
[11]
  GI50: 1.49 µM
  Growth Percent: 18.62%
[12]
  Growth Percent: 2.97%
  GI50: 1.7 µM
[13]
  GI50: 1.02 µM
  Growth Percent: −32.36%
[14]
  GI50: 0.26 µM
  Growth Percent: −3.56%
[15]
  Growth Percent: −22.16%
  GI50: 1.41 µM
[16]
  GI50: 1.98 µM
  Growth Percent: 24.61%
[17]
  Growth Percent: −45.63%
  GI50: 0.23 µM
[18]
  GI50: 0.96 µM
  Growth Percent: 1.25%
[19]
  GI50: 0.91 µM
  Growth Percent: 9.88%
[20]
  Growth Percent: −24.64%
  GI50: 1.27 µM
[21]
  Growth Percent: −17.67%
  GI50: 0.94 µM
[22]; Breast Cancer subpanel
  Selectivity index (SI): 0.96
[22]; CNS Cancer subpanel
  Selectivity index (SI): 0.96
[22]; Colon Cancer subpanel
  Selectivity index (SI): 1.10
[22]
  GI50: 0.03 to 5.9 µM
[22]; Leukemia subpanel
  Selectivity index (SI): 5.30
[22]; Melanoma subpanel
  Selectivity index (SI): 1.01
[22]; [23]
  Selectivity index (SI): 0.87
[22]; Ovarian Cancer subpanel
  Selectivity index (SI): 0.57
[22]; Prostate Cancer subpanel
  Selectivity index (SI): 1.86
[22]; Renal Cancer subpanel
  Selectivity index (SI): 1.01

## COC(=O)[C@]12CC[C@@H](C(=O)/C=C/c3cccnc3)[C@@H]1[C@H]1CC[C@@H]3[C@@]4(C)C/C(=C\c5cccnc5)C(=O)C(C)(C)[C@@H]4CC[C@@]3(C)[C@]1(C)CC2 [Compound 7, methyl 2,30-bis-(3-pyridinylidene)-3,20-dioxo-lup-28-oate]
[1]
  Growth Percent: −95.19%
  GI50: 0.21 µM
[2]
  GI50: 0.36 µM
  Growth Percent: −87.90%
[3]
  GI50: 1.08 µM
  Growth Percent: −74.98%
[4]
  Growth Percent: −81.32%
  GI50: 0.47 µM
[5]
  Growth Percent: −92.26%
  GI50: 0.31 µM
[6]
  Growth Percent: −49.05%
  GI50: 0.46 µM
[7]
  GI50: 0.3 µM
  Growth Percent: −67.32%
[8]
  GI50: 0.66 µM
  Growth Percent: −59.72%
[9]
  GI50: 0.4 µM
  Growth Percent: −67.85%
[10]
  GI50: 0.27 µM
  Growth Percent: −58.90%
[11]
  GI50: 0.34 µM
  Growth Percent: −39.20%
[12]
  Growth Percent: −39.38%
  GI50: 0.43 µM
[13]
  GI50: 0.24 µM
  Growth Percent: −96.48%
[14]
  GI50: 0.42 µM
  Growth Percent: −14.12%
[15]
  Growth Percent: −100.00%
  GI50: 0.19 µM
[16]
  GI50: 0.43 µM
  Growth Percent: −43.57%
[17]
  Growth Percent: −87.45%
  GI50: 0.2 µM
[18]
  GI50: 0.27 µM
  Growth Percent: −87.88%
[19]
  GI50: 0.38 µM
  Growth Percent: −54.19%
[20]
  Growth Percent: −9.34%
  GI50: 0.39 µM
[21]
  Growth Percent: −77.80%
  GI50: 0.39 µM
[22]; Breast Cancer subpanel
  Selectivity index (SI): 1.34
[22]; CNS Cancer subpanel
  Selectivity index (SI): 0.72
[22]; Colon Cancer subpanel
  Selectivity index (SI): 1.07
[22]
  GI50: 0.18 to 1.53 µM
[22]; Leukemia subpanel
  Selectivity index (SI): 1.73
[22]; Melanoma subpanel
  Selectivity index (SI): 1.59
[22]; [23]
  Selectivity index (SI): 0.65
[22]; Ovarian Cancer subpanel
  Selectivity index (SI): 0.98
[22]; Prostate Cancer subpanel
  Selectivity index (SI): 0.50
[22]; Renal Cancer subpanel
  Selectivity index (SI): 1.23
